From patent US20170348306A1, “METHODS OF TREATING CANCER” (GLAXOSMITHKLINE LLC, priority 2011, published 2017)
pIC50: −log10 of the molar value.

Tests used:
BC-3 = experiment: Cell proliferation assay (6 days, CellTiter-Glo); format: cell-based; conditions: Homo sapiens, 144 h, PEL, AIDS-BCBL, EZH2 D185H (HET), read-out: AVERAGE GROWTH IC50
From the text: (§1) Thus, Example 22 and Table 6 better reflect the inhibition of HZH2 inhibitors on cell lines, e.g. the lymphoma cell lines. DLBCL cell lines were the most sensitive to EZH2 inhibition (FIG. 11a). […] Evaluation of GSK126 in additional lymphoma cell lines and extensive genomic and epigenomic characterization will be required to fully elucidate the determinants of sensitivity among lymphoma subtypes.
(§2) Biochemical assays utilized the 5-member PRC2 complex (human Flag-EZH2, EED, SUZ12, AEBP2, RbAp48) containing either WT or mutant EZH2, [^3H-]SAM and the indicated peptide substrate; reactions were incubated for 30 minutes. Global histone modification levels were determined by ELISA or western blot methods using antibodies specific for total histone H3, H3K27me1, H3K27me2, or H3K27me3. Cell proliferation and Caspase-3/7 activity were assessed using CellTiter-Glo and Caspase-Glo 3/7 (Promega), respectively. Gene expression profiling was conducted using Affymetrix Human Genome U133 Plus 2.0 microarrays. Differentially-expressed probe sets were determined by fitting the data to a linear model using the limma statistical package (http://www.bioconductor.org) and carrying out pair-wise contrasts of treated versus control. Significant probe sets were filtered for detection (log2 signal threshold of 8), an average fold-change >2 or <−2, or >1.5 or <−1.5, where indicated, with p-values adjusted for multiple testing correction by FDR (Benjamini Hochberg)<0.1. H3K27me3 ChIP reads were aligned using Bowtie (56). H3K27me3 enrichment peaks were identified using SICER (57) with optimized parameters. A custom PERL script was utilized to quantify the average basal H3K27me3 ChIP-seq tag density across gene sets. All in vivo studies were conducted after review by the Institutional Animal Care and Use Committee at GSK and in accordance with the GSK Policy on the Care, Welfare and Treatment of Laboratory Animals. GSK126 and vehicle were administered to mice intraperitoneally. Two-tailed t-tests were conducted assuming two samples of equal variance.
(§3) The optimal cell seeding was determined empirically for all cell lines by examining the growth of a wide range of seeding densities in a 384-well format to identify conditions that permitted proliferation for 6 days. […] Plates were incubated for 6 days at 37° C. in 5% CO2. Cells were then lysed with CellTiter-Glo (Promega) and chemiluminescent signal was detected with a TECAN Safire2 microplate reader. In addition, an untreated plate of cells was harvested at the time of compound addition (T0) to quantify the starting number of cells. CTG values obtained after the 6 day treatment were expressed as a percent of the T0 value and plotted against compound concentration.

HS-SULTAN = experiment: Cell proliferation assay (6 days, CellTiter-Glo); format: cell-based; conditions: Homo sapiens, 144 h, BURKITT, EZH2 WT, read-out: AVERAGE GROWTH IC50
From the text: as §1, §2, §3

MC116 = experiment: Cell proliferation assay (6 days, CellTiter-Glo); format: cell-based; conditions: Homo sapiens, 144 h, B-NHL, EZH2 WT, read-out: AVERAGE GROWTH IC50
From the text: as §1, §2, §3

MINO = experiment: Cell proliferation assay (6 days, CellTiter-Glo); format: cell-based; conditions: Homo sapiens, 144 h, B-NHL, EZH2 D185H (HET), read-out: AVERAGE GROWTH IC50
From the text: as §1, §2, §3

SC-1 = experiment: Cell proliferation assay (6 days, CellTiter-Glo); format: cell-based; conditions: Homo sapiens, 144 h, FL, EZH2 D185H (HET), read-out: AVERAGE GROWTH IC50
From the text: as §1, §2, §3

WSU-FSCCL = experiment: Cell proliferation assay (6 days, CellTiter-Glo); format: cell-based; conditions: Homo sapiens, 144 h, FL, EZH2 D185H (HET), read-out: AVERAGE GROWTH IC50
From the text: as §1, §2, §3

WSU-NHL = experiment: Cell proliferation assay (6 days, CellTiter-Glo); format: cell-based; conditions: Homo sapiens, 144 h, FL, EZH2 D185H (HET), read-out: AVERAGE GROWTH IC50
From the text: as §1, §2, §3

EZH2 = molecular target: T1, EZH2 (Homo sapiens, UniProt Q15910); experiment: Mechanism of GSK126 inhibition of EZH2 (IC50 at varied SAM and peptide); format: biochemical; conditions: SAM 0.1-15 μM; peptide 16-60 μM
T1 construct: TEV site (FLAG-tev-EZH2) (N); made in house; host or cells: Sf9 insect cells (baculovirus)
From the text: The resulting IC50 values were plotted against the [SAM]/Km ratio or the [peptide]/Km ratio respectively.

[1] = test system: H3K27me3 in DLBCL cell lines; experiment: ELISA-based quantitation of H3K27me3 in treated cells; conditions: Homo sapiens, EZH2 WT and mutant DLBCL cell lines, 48 hours
Method: Biochemical assays utilized the 5-member PRC2 complex (human Flag-EZH2, EED, SUZ12, AEBP2, RbAp48) containing either WT or mutant EZH2, [^3H-]SAM and the indicated peptide substrate; reactions were incubated for 30 minutes. Global histone modification levels were determined by ELISA or western blot methods using antibodies specific for total histone H3, H3K27me1, H3K27me2, or H3K27me3. Cell proliferation and Caspase-3/7 activity were assessed using CellTiter-Glo and Caspase-Glo 3/7 (Promega), respectively. Gene expression profiling was conducted using Affymetrix Human Genome U133 Plus 2.0 microarrays. Differentially-expressed probe sets were determined by fitting the data to a linear model using the limma statistical package (http://www.bioconductor.org) and carrying out pair-wise contrasts of treated versus control. […] H3K27me3 ChIP reads were aligned using Bowtie (56). […] A custom PERL script was utilized to quantify the average basal H3K27me3 ChIP-seq tag density across gene sets. […]
Following tissue homogenization, tumor tissue lysates were prepared using the Epigentek Histone Extraction kit (OP-0006). […] Luminata Forte substrate (Millipore) was added 5 minutes before chemiluminescence was quantified with an EnVision multi-label plate reader (PerkinElmer). H3K27me3 levels were normalized to total H3 values and IC50 values were determined using a 4-parameter curve fit.

DLBCL cell lines = experiment: Gene expression profiling (Affymetrix Human Genome U133 Plus 2.0); format: cell-based; conditions: 72 hours
Method: as §2
Cells (2×10^5/well) were seeded into six-well tissue culture plates in the appropriate cell culture media 24 hours before treatment. […] Cells were collected into Trizol reagent (Invitrogen) and total RNA was isolated via phenol:chloroform extraction and the RNeasy kit (Qiagen) according to the manufacturer's instructions. Total RNA was labeled and hybridized to Affymetrix Human Genome U133 Plus 2.0 oligonucleotide microarrays arrays according to the manufacturer's instructions (Affymetrix, Santa Clara, Calif., USA) at Expression Analysis (Durham, N.C.). […] Principal component and correlation analysis were used to confirm data reproducibility (FIG. 16).
CEL files, corresponding to individual samples, were processed by the Micro Array Suite 5.0 (MASS) algorithm (http://www.affyrmetrix.com/support/index.affx) where signal values were scaled to a target intensity of 500 and log2 transformed. Differentially expressed probe sets were determined by fitting the data to a linear model and carrying out pair-wise contrasts of treated versus control. […]

T1 sequence (Q15910 whole entry): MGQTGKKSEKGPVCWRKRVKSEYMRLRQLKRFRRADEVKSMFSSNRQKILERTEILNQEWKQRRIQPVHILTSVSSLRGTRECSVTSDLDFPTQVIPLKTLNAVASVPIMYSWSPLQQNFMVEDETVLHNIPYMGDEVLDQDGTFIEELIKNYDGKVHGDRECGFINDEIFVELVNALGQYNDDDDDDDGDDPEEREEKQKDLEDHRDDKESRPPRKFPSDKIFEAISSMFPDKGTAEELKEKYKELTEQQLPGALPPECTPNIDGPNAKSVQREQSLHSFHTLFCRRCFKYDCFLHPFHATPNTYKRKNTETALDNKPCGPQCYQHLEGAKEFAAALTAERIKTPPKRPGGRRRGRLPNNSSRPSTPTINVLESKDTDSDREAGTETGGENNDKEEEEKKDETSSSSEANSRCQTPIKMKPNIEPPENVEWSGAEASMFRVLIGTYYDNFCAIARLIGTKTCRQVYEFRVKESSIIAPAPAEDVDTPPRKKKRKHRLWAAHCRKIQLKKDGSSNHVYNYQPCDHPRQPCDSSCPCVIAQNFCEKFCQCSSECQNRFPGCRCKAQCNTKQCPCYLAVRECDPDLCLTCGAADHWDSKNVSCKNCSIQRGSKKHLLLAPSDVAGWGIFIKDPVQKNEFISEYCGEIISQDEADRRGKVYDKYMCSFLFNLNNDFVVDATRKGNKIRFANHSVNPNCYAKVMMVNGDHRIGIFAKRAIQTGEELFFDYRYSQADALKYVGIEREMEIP
T1 sequence (O75530 whole entry partner): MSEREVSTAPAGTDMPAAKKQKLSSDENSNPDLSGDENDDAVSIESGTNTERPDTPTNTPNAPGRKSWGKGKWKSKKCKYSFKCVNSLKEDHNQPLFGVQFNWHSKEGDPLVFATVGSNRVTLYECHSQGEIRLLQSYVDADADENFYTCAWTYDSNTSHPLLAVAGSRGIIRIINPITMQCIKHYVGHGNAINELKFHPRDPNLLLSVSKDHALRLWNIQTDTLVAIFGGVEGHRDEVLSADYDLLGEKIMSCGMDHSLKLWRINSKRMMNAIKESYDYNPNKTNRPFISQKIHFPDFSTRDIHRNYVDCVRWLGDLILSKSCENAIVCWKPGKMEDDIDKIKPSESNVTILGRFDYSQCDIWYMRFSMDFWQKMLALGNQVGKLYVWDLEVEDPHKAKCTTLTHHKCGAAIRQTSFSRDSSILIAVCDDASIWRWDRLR
T1 sequence (Q15022 whole entry partner): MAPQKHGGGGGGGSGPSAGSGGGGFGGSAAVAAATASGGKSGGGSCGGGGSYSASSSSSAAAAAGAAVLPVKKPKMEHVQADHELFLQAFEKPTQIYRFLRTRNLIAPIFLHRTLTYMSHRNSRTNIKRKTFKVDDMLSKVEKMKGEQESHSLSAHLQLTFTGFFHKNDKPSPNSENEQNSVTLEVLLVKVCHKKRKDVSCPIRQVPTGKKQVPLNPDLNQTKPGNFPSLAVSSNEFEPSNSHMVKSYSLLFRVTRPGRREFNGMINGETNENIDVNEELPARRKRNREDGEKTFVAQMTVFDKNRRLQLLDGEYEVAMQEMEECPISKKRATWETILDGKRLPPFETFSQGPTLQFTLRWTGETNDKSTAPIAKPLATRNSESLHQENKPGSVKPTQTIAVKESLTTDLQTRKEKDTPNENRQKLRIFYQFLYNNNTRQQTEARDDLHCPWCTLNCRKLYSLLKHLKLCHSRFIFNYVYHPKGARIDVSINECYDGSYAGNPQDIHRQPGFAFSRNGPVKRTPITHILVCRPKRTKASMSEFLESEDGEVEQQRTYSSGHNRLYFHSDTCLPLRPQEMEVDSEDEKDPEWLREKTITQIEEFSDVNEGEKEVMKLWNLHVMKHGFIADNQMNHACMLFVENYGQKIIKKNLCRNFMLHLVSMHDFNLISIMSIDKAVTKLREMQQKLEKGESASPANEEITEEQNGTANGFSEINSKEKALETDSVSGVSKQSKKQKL
T1 sequence (Q09028 whole entry partner): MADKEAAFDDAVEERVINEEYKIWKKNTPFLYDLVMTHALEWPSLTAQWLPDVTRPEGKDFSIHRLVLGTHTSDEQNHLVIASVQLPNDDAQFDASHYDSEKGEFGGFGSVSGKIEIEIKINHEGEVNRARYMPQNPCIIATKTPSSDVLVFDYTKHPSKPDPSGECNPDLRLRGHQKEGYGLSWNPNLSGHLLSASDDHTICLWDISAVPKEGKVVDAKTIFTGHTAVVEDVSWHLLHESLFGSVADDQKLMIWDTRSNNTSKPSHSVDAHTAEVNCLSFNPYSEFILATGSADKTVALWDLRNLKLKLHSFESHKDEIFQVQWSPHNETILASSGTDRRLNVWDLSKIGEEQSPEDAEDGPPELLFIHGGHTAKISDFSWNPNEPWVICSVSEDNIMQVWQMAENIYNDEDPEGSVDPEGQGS
T1 sequence (Q6ZN18 1-503 partner limits assumed): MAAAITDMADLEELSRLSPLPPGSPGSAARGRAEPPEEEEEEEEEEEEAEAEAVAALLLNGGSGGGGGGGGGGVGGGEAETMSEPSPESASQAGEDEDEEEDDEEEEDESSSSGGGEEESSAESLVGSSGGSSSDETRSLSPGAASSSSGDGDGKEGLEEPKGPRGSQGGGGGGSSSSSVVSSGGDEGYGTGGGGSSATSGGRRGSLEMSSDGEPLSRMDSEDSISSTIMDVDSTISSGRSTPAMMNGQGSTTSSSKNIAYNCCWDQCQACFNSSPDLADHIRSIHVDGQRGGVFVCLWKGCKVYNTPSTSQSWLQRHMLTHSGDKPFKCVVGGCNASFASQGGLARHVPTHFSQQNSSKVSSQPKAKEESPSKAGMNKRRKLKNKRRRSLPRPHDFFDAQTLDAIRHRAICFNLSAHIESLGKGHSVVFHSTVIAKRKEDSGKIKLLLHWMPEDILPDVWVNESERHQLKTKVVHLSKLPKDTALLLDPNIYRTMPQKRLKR

Q: With `CC[C@H](C)n1cc(C)c2c(C(=O)NCc3c(C)cc(C)[nH]c3=O)cc(-c3ccc(N4CCNCC4)nc3)cc21` [GSK126] as the compound, how does the pIC50 (BC-3) read?
A: 5.65

Q: And the pIC50 (HS-SULTAN)?
A: 5.64

Q: And the pIC50 (MC116)?
A: 4.99

Q: What about the pIC50 (MINO) of the same compound?
A: 5.13

Q: What about the pIC50 (SC-1) of the same compound?
A: 5.43

Q: What about the pIC50 (WSU-FSCCL) of the same compound?
A: 4.92

Q: And the pIC50 (WSU-NHL)?
A: 5.45

Q: What about the mechanism of inhibition (EZH2) of the same compound?
A: competitive with SAM and non-competitive with peptide substrates

Q: And the pIC50 [1]?
A: 6.60 to 8.00

Q: And the “up-regulated probe sets common to at least 4 of 5 mutant cell lines” value (DLBCL cell lines; Pfeiffer, KARPAS-422, WSU-DLCL2, SU-DHL-10, SU-DHL-6, 500 nM)?
A: 35 probe sets

Q: What about the down-regulated probe sets (DLBCL cell lines; Toledo, 2 μM GSK126) of the same compound?
A: 10 probe sets

Q: And the up-regulated probe sets (DLBCL cell lines; Toledo, 2 μM GSK126)?
A: 23 probe sets

Q: What about the “share of up-regulated among gene expression changes” value (DLBCL cell lines; five most sensitive EZH2 mutant cell lines, 500 nM) of the same compound?
A: 69-95%
